Results from patent publication EP3831399A1, “ANTI-NOROVIRUS AGENT” (DENSO CORPORATION, priority 2018, dated 2020).
Entries after “also recorded” stand apart in the source; their conditions may differ.

What was measured:
Assay type in all cases: cell-based
feline calicivirus (FCV) = experiment: Virucidal effect in presence of organic material (BSA); conditions: 1,000 µg/ml
Protocol: • Virus: using feline calicivirus (FCV) as a replacement for norovirus • Used medicine and concentration: 1,000 µg/ml of sodium hypochlorite or coccomyxa sp. KJ strain MGDG preparation • Organic material: using BSA (albumin) 5%
• (1) Feline calicivirus (FCV) was prepared in 2×10^5 PFU/ml. • (2) An MGDG preparation or sodium hypochlorite is prepared at a concentration four times the final assay concentration ([…]). • (3) Bovine serum albumin (BSA) is prepared as an organic material at a concentration four times the final concentration (5%). • (4) Virus fluid: the MGDG preparation or sodium hypochlorite and BSA are mixed at a ratio of 2 : 1 : 1. A sample prepared by adding PBS instead of the MGDG preparation or sodium hypochlorite was used as a control. • (5) After being left at room temperature for 1 minute, 10 minutes, and 60 minutes, 100-fold dilution with PBS is performed. The CRFK cells cultured in a monolayer fashion are added in an amount of 100 µl/culture dish to a 35 mm culture dish, and an infection treatment is performed at room temperature for 1 hour. • (6) A 1% SeaPlaque Agarose-added MEM culture medium is overlaid. • (7) After 2 days, the appeared plaque is immobilized and stained with a crystal violet solution. • (8) The number of plaques is counted under a microscope.

Influenza A virus (IFV) = experiment: Virucidal activity of each MGDG fraction, influenza virus; conditions: 50 µg/ml, 37°C, 60 minutes; MDCK cell
[1] = system: Herpes simplex virus type 2 (HSV-2); experiment: Virucidal activity of each MGDG fraction, herpes simplex virus type 2; conditions: 50 µg/ml, 37°C, 60 minutes, Vero cell
Protocol: (1) A coccomyxa sp. KJ strain-derived MGDG preparation was subjected to HPLC, and each peak was separated, thereby obtaining five types of MGDG refined products (MGDG1, MGDG2, MGDG3, MGDG4, and MGDG5). Furthermore, the MGDG preparation before separation (containing MGDG1 to MGDG5) was prepared as a mix product. (2) Each sample was mixed with respect to each virus fluid (2×10^5 PFU/ml) so that the final concentration became 50 µg/ml, and the resultant product was left to stand still at 37°C for 60 minutes.
(3) The mixed liquid of (2) is diluted in the MEM culture medium without foetal bovine serum, a culture medium for plaque assay is then overlaid, and culturing is performed at 37°C for 2 to 3 days. (4) After checking appearance of plaques, the cells were immobilized and stained with a neutral red solution, and the number of plaques was measured under a microscope. The virus survival rate of each sample was calculated based on the appearance number of virus appearing in the case of not adding the sample (100%). The virucidal performance of each sample was evaluated from the virus survival rate.

Compound	inactivation effect in the presence of the organic material, change versus its absence (feline calicivirus (FCV); 5% BSA)	rate of virus inactivation (feline calicivirus (FCV); organic material (BSA) did not exist, one minute)	virucidal (inactivation) activity (virus survival rate) (Influenza A virus (IFV))	virucidal (inactivation) activity (virus survival rate) [1]	virucidal (inactivation) activity (virus survival rate) ([1]; listed as fifth peak of the KJ strain MGDG preparation)
OCl [sodium hypochlorite]	significantly reduced	100%	–	–	–
monogalactosyldiacylglycerol in which a constituent fatty acid is C18:3 and C18:2 [MGDG5]	–	–	significant inactivation effect; also recorded: high virucidal activity	significant inactivation effect	high virucidal activity
